Source: patent EP0815110B1
Where two headings read alike, the source gives them in different places.

Key:
Type in all cases: biochemical, Ratte
[1] = target: NADH-Ubichinon-1-Reduktase (Rattus norvegicus, UniProt A6K8N6+P03889+Q641Y2); experiment: NADH-ubiquinone-1 reductase (complex I) test, spectrophotometric at 340 nm
Succinat-Dehydrogenase = target: T1, Succinat-Dehydrogenase (Rattus norvegicus, UniProt P21913+Q641Z9+Q6PCT8+Q920L2); experiment: Succinate dehydrogenase (complex II) activity; conditions: Rattenhirn-Homogenate
T1 construct: Hemmung des Komplexes I bzw; II der mitochondrialen Atmungskette in Rattenhirn-Homogenaten; from tissue; host or cells: rat brain homogenate

[2] = target: NADH-Cytochrom-c-Reduktase (Rattus norvegicus, UniProt A6K8N6+P03889+Q641Y2); experiment: NADH-cytochrome-c reductase test (complex I/III), spectrophotometric at 550 nm
Experimental: (§1) Die Isolierung von SMP's aus Rattenleber erfolgte nach (Ragan et al., 1987; Rickwood et al., 1987). • 8.1 Hemmung des Komplexes I der Atmungskette in SMP's durch N-Me-TaClo Komplex I (NADH-Dehydrogenase) der mitochondrialen Atmungskette katalysiert im ersten Schritt eine NADH-Oxidation. Die dabei freiwerdenden Elektronen werden in einem zweiten Schritt auf Coenzym Q bzw. Ubichinon übertragen. Ein typischer Testansatz (modifiziert nach Ragan et al., 1987) enthält dabei 20 mM K-Phosphat Puffer, pH 8.0, 0.2 mM NADH, 1 mM KCN, SMP (ca. 0.3 mg Protein/ml) und +/- 250 µM N-Me-TaClo (25 mM methanolische Stammlösung). Der Start der Reaktion erfolgt durch Zugabe von 50 µM Ubichinon-1. Die Messung der Reaktion erfolgt spektralphotometrisch bei einer Wellenlänge von 340 nm während der linearen Phase. Bei Zugabe von N-Me-TaClo erfolgt eine 100proz. Hemmung der Ubichinon-Reduktion (s.a. Tabelle 1). • 8.2 Hemmung der elektronenübertragenden Reaktionen auf Coenzym Q: NADH-Cytochrom-c-Reduktase und Succinat-Cytochrom-c-Reduktase Coenzym Q wird sowohl durch freiwerdende Elektronen bei der Komplex-I-katalysierten NADH-Oxidation, als auch bei der Komplex-II (Succinat-Coenzym-Q-Reduktase) -katalysierten Reaktion reduziert. Messungen dieser Reaktionswege mit anschließendem Elektronenfluß über den Komplex III bis zur Cytochrom-c-Reduktion lassen sich mittels folgender Tests untersuchen und durch die hier vorgestellten halogenierten β-Carbolinderivate (im folgenden am Beispiel von N-Me-TaClo) hemmen: • NADH-Cytochrom-c-Reduktase-Test (modifiziert nach Sottocasa et al., 1967) Ein typischer Testansatz enthält 25 mM K-Phosphat-Puffer, pH 7.5, 0.2 mM NADH, 0.1 mM Cytochrom-c, 0.5 mM KCN und +/- 250 µM N-Me-TaClo (25 mM methanolische Stammlösung). Die Messung der Reaktion erfolgt spektralphotometrisch bei einer Wellenlänge von 550 nm während der linearen Phase. Bei Zugabe von N-Me-Taclo erfolgt eine 100proz. Hemmung der Reaktion (s.a. Tabelle 1). • - Succinat-Cytochrom-c-Reduktase-Test (modifiziert nach Sottocasa et al., 1967) Ein typischer Testansatz enthält 55 mM K-Phosphat-Puffer, pH 7.5, 3 mM Na-Succinat, 0.1 mM Cytochrom c, +/- 250 µM N-Me-TaClo (25 mM methanolische Stammlösung) und 0.5 mM KCN. Gestartet wird die Reaktion mit SMP (ca. 0.3 mg Protein/ml). Die Messung der Reaktion erfolgt spektralphotometrisch bei einer Wellenlänge von 550 nm während der linearen Phase. Bei Zugabe von N-Me-TaClo erfolgt eine 100proz. Hemmung der Reaktion (s. auch Tabelle 1). • - Einsatz der halogenierten β-Carboline als Hemmstoffe der NADH- bzw. Succinat-gekoppelten Oxidation; Polarographische Messungen der Enzymaktivitäten an SMP's ("submitochondrial particles") Bei der polarographischen Messung wird die Aktivität der Atmungskette in ihrer Gesamtheit ausgehend von der NADH-Oxidation (Komplex I) bzw. Succinat-Oxidation (Komplex II) bis zur O2-Reduktion (Komplex IV) bestimmt. Als Maß der Aktivität wird der O2-Verbrauch bestimmt. Der Test wird unter Verwendung einer Clark-Sauerstoffelektrode (Rank Brothers, England) bei 30°C in 2 ml Puffer (50 mM K-Phosphat, pH 7.4, 250 mM Saccharose) und 0.15 mg SMP-Protein/ml durchgeführt. Nach 5 minütiger Vorinkubation ± Inhibitor wird die Messung mit NADH (Endkonzentration 0.28 mM) bzw. Succinat (Endkonzentration 20 mM) gestartet. Bei der Succinat-gekoppelten Oxidation werden die SMP's vorher nach Krueger et al., (1993) mit Malonat aktiviert.

[3] = system: Succinat-Cytochrom-c-Reduktase; experiment: Succinate-cytochrome-c reductase test (complex II/III), spectrophotometric at 550 nm
Experimental: as §1, with “Succinat-Oxidation (Komplex II) bis zur O2-Reduktion (Komplex IV) bestimmt. Als Maß der Aktivität wird der O2-Verbrauch bestimmt. Der Test wird unter Verwendung einer Clark-Sauerstoffelektrode (Rank Brothers, England) bei 30°C in 2 ml Puffer (50 mM K-Phosphat, pH 7.4, 250 mM Saccharose) und 0.15 mg SMP-Protein/ml durchgeführt. Nach 5 minütiger Vorinkubation ± Inhibitor wird die Messung mit NADH (Endkonzentration 0.28 mM) bzw. Succinat (Endkonzentration 20 mM) gestartet. Bei der Succinat-gekoppelten Oxidation werden die SMP's vorher nach Krueger et al., (1993) mit Malonat aktiviert.” left out

NADH-Oxidase = NADH-Oxidase (Rattus norvegicus, UniProt A6K8N6+P03889+Q641Y2); experiment: NADH oxidase activity of complex I of the mitochondrial respiratory chain
Cytochrom c Oxidase = Cytochrom c Oxidase (Rattus norvegicus, UniProt P00406+P05503); experiment: Cytochrome c oxidase (complex IV) activity; conditions: 500 µM TaClo, Rattenhirn-Homogenate
[4] = bei 500 µmol, Rattenhirn-Homogenate, read-out: Komplex-I-Hemmung Inhibierungsrate (in %) bei gegebener Konzentration (in µmol)
[5] = bei 500 µmol, read-out: Komplex-II-Hemmung Inhibierungsrate (in %) bei gegebener Konzentration (in µmol)
[6] = bei 250 µmol, read-out: Komplex-II-Hemmung Inhibierungsrate (in %) bei gegebener Konzentration (in µmol)
[7] = read-out: Inhibierungsrate durch TaClo

Chain of NADH-Ubichinon-1-Reduktase (P03889 whole entry): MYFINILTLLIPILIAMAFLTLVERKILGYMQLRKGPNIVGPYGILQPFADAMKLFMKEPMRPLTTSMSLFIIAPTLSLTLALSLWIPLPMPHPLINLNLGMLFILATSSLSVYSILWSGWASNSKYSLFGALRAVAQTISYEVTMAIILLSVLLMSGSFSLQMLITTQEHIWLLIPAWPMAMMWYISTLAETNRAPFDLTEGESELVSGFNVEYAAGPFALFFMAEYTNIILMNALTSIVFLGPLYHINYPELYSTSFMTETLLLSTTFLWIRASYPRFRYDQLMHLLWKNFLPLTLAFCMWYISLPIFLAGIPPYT
Chain of NADH-Ubichinon-1-Reduktase (Q641Y2 34-463): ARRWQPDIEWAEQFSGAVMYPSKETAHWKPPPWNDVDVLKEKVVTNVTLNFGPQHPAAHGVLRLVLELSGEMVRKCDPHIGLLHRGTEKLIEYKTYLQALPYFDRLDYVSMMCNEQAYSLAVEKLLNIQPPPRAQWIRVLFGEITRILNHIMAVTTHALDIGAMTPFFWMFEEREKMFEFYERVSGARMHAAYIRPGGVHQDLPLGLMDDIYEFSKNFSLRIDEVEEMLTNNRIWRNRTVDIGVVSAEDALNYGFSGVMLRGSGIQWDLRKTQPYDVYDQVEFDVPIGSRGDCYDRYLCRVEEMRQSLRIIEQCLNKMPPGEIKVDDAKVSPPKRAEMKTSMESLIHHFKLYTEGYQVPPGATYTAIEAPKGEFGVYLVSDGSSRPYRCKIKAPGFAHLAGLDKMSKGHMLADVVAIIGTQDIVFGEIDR
Chain of NADH-Ubichinon-1-Reduktase (A6K8N6 entry or part of it): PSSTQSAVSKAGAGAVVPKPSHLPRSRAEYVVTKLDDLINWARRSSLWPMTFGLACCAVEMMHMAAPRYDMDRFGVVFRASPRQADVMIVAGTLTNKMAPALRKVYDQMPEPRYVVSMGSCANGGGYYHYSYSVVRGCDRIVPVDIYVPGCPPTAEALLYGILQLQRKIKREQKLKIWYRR
Chain of NADH-Cytochrom-c-Reduktase (Q641Y2 34-463): as the sequence (Q641Y2 34-463) above
Chain of NADH-Cytochrom-c-Reduktase (P03889 whole entry): as the sequence (P03889 whole entry) above
Chain of NADH-Cytochrom-c-Reduktase (A6K8N6 entry or part of it): as the sequence (A6K8N6 entry or part of it) above
T1 sequence (Q920L2 35-656): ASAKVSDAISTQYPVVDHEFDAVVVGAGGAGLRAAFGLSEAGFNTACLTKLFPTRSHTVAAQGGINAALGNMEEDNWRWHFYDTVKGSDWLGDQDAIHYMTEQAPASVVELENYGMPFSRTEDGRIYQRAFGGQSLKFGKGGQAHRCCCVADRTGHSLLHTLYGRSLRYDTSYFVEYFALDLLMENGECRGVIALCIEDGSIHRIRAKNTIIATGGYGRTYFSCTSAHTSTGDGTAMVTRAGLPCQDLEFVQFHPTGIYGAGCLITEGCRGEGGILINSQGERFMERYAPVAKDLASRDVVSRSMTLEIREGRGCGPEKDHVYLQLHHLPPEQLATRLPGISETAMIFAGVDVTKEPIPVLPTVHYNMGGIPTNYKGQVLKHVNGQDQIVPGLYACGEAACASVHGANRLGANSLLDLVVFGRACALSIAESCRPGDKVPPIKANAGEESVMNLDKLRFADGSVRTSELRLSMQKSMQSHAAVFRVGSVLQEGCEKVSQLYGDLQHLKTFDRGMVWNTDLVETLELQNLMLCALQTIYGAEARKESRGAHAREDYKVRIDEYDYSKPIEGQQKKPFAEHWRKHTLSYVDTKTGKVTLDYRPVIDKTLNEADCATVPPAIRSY
T1 sequence (P21913 31-282): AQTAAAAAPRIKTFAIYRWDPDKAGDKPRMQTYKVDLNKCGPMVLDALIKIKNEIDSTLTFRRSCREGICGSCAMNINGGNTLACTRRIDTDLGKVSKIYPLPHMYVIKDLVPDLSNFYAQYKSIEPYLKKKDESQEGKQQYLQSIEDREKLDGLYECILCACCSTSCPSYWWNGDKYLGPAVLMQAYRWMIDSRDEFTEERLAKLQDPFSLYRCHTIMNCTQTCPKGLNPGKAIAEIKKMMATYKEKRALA
T1 sequence (Q641Z9 1-169): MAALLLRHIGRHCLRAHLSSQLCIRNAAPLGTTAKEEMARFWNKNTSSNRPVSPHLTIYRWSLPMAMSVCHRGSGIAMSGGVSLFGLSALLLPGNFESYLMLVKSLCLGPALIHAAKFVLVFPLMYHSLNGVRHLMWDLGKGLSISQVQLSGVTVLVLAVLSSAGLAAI
T1 sequence (Q6PCT8 57-159): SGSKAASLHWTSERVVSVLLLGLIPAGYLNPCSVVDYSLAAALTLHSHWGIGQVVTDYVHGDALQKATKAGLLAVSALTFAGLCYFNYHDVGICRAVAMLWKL

Q: Which inhibition at 500 µM [1, 4] does the source give for `CC(=O)N1CCc2c([nH]c3ccccc23)C1C(Cl)(Cl)Cl` (racemic) [N-Acetyl-TaClo] here?
A: 20%

Q: With `C=CCN1CCc2c([nH]c3ccccc23)C1C(Cl)(Cl)Cl` (racemic) [N-Allyl-TaClo] as the molecule, how does the inhibition at 500 µM (Succinat-Dehydrogenase; [5]) read?
A: ≥ 100%

Q: `ClC(Cl)(Cl)C1c2[nH]c3ccccc3c2CCN1Cc1ccccc1` (racemic) [N-Bzl-TaClo] was tested. Which inhibition at 250 µM (Succinat-Dehydrogenase; [6]) did it give?
A: 55%

Q: Which inhibition at 500 µM (Succinat-Dehydrogenase; [5]) does the source give for `CCN1CCc2c([nH]c3ccccc23)C1C(Cl)(Cl)Cl` (racemic) [N-Ethyl-TaClo] here?
A: 75%

Q: With `O=CN1CCc2c([nH]c3ccccc23)C1C(Br)(Br)Br` (racemic) [N-Formyl-TaBro] as the molecule, how does the inhibition at 500 µM [1, 4] read?
A: 83%

Q: What does the source list for `CN1CCc2c([nH]c3ccccc23)C1C(Cl)(Cl)Cl` (racemic) [N-Me-TaClo]?
A: inhibition at 250 µM ([2]; 250 µM N-Me-TaClo, SMP's aus Rattenleber, read-out: Hemmung der Reaktion (NADH-Cytochrom-c-Reduktase-Test)): 100%; inhibition at 250 µM ([2]; NADH-Cytochrom-c-Reduktase, 250 µM, Rattenhirn-Homogenate, read-out: Inhibierung bei 250 µM N-Me-TaClo): 70%; inhibition at 250 µM ([1]; 250 µM N-Me-TaClo, SMP's aus Rattenleber, read-out: Hemmung der Ubichinon-Reduktion): 100%; inhibition at 250 µM ([1]; NADH-Ubichinon-1-Reduktase, 250 µM, Rattenhirn-Homogenate, read-out: Inhibierung bei 250 µM N-Me-TaClo): 100%; Hemmung der Reaktion (Succinat-Cytochrom-c-Reduktase-Test) ([3]; 250 µM N-Me-TaClo, SMP's aus Rattenleber): 100 proz.; Inhibierung bei 250 µM N-Me-TaClo ([3]; Succinat-Cytochrom-c-Reduktase, 250 µM, Rattenhirn-Homogenate): 80%; inhibition at 250 µM (NADH-Oxidase; NADH-Oxidase, 250 µM, Rattenhirn-Homogenate, read-out: Inhibierung bei 250 µM N-Me-TaClo): 0%; inhibition at 250 µM (Succinat-Dehydrogenase; Succinat-Dehydrogenase, 250 µM, read-out: Inhibierung bei 250 µM N-Me-TaClo): 100%; inhibition at 250 µM (Succinat-Dehydrogenase; [6]): ≥ 100%

Q: Which inhibition at 500 µM [1, 4] does the source give for `O=C(CCl)N1CCc2c([nH]c3ccccc23)C1C(Cl)(Cl)Cl` (racemic) [N-Monochloracetyl-TaClo] here?
A: 95%

Q: How did the inhibition at 500 µM [1, 4] turn out when `O=C(N1CCc2c([nH]c3ccccc23)C1C(Cl)(Cl)Cl)C(Cl)(Cl)Cl` (racemic) [N-Trichloracetyl-TaClo] was run?
A: 90%

Q: How did the “Enzymaktivität (nmol/min/mg Protein)” value ([2]; NADH Cyt c Reduktase, 500 µM TaClo, Rattenhirn-Homogenate, Kontrolle 24.6) turn out when `ClC(Cl)(Cl)C1NCCc2c1[nH]c1ccccc21` (racemic) [TaClo, 1-Trichlormethyl-1,2,3,4-tetrahydro-β-carbolin] was run?
A: 14.7 nmol/min/mg Protein

Q: What about the inhibition at 500 µM [2, 7] of the same molecule?
A: 40%

Q: What about the “Enzymaktivität (nmol/min/mg Protein)” value ([1]; NADH CoQ1 Reduktase, 500 µM TaClo, Rattenhirn-Homogenate, Kontrolle 10.9) of the same molecule?
A: 1.6 nmol/min/mg Protein

Q: What about the inhibition at 500 µM [1, 7] of the same molecule?
A: 85%

Q: And the “Enzymaktivität (nmol/min/mg Protein)” value (Cytochrom c Oxidase; Kontrolle 45.8)?
A: 38.9 nmol/min/mg Protein

Q: What about the inhibition at 500 µM (Cytochrom c Oxidase; [7]) of the same molecule?
A: 20%

Q: And the “Inhibierungsrate durch TaClo” value ([3]; Succinat Cyt c Reduktase, 500 µM TaClo, Rattenhirn-Homogenate)?
A: 22%

Q: What about the “Enzymaktivität (nmol/min/mg Protein)” value ([3]; Succinat Cyt c Reduktase, 500 µM TaClo, Rattenhirn-Homogenate, Kontrolle 11.9) of the same molecule?
A: 9.2 nmol/min/mg Protein

Q: What about the “Enzymaktivität (nmol/min/mg Protein)” value (NADH-Oxidase; NADH-Oxidase, 500 µM TaClo, Rattenhirn-Homogenate, Kontrolle 141.0) of the same molecule?
A: 138.0 nmol/min/mg Protein

Q: And the inhibition at 500 µM (NADH-Oxidase; [7])?
A: 0%

Q: And the “Einfluß auf die NADH-Oxidation” value (NADH-Oxidase; result in words, s. Tabelle 2)?
A: beeinflußt jedoch nicht die NADH-Oxidation

Q: And the “Enzymaktivität (nmol/min/mg Protein)” value (Succinat-Dehydrogenase; Succinat Dehydrogenase, 500 µM TaClo, Kontrolle 29.6)?
A: 30.1 nmol/min/mg Protein

Q: And the inhibition at 500 µM (Succinat-Dehydrogenase; Succinat Dehydrogenase, 500 µM TaClo, read-out: Inhibierungsrate durch TaClo)?
A: 0%

Q: What about the inhibition at 500 µM (Succinat-Dehydrogenase; [5]) of the same molecule?
A: 30%

Q: Which inhibition at 500 µM (Succinat-Dehydrogenase; [5]) does the source give for `COC(=O)[C@@H]1Cc2c([nH]c3ccccc23)C(C(Cl)(Cl)Cl)N1` (stereo partly shown) [3-COOMe-TaClo] here?
A: 75%

Q: How did the inhibition at 250 µM (Succinat-Dehydrogenase; [6]) turn out when `FC(F)(F)C1=NCCc2c1[nH]c1ccccc21` [DDH-TaFlu, 1-Trifluormethyl-3,4-didehydro-β-carbolin] was run?
A: 20%

Q: For `ClC(Cl)=C1NCCc2c1[nH]c1ccccc21` [Dichlormethylen-TaClo], which inhibition at 250 µM (Succinat-Dehydrogenase; [6]) is on record?
A: 40%

Q: How did the inhibition at 500 µM (Succinat-Dehydrogenase; [5]) turn out when `COC(=O)C1Cc2c([nH]c3ccccc23)C(C(Cl)(Cl)Cl)N1Cc1ccccc1` (stereo not shown) [N-Bzl-3-COOMe-TaClo] was run?
A: 60%

Q: For `O=CN1CCc2c([nH]c3ccccc23)C1=C(Br)Br` [N-Formyl-dibrommethylen-TaBro], which inhibition at 500 µM [1, 4] is on record?
A: ≥ 100%

Q: What does the source list for `C=C(C)[C@H]1Cc2c(ccc3c2O[C@@H]2COc4cc(OC)c(OC)cc4[C@@H]2C3=O)O1` [Rotenon, reference compound]?
A: Enzymaktivität (nmol/min/mg Protein) [2]: 5.7 nmol/min/mg Protein; Enzymaktivität (nmol/min/mg Protein) [1]: 4.2 nmol/min/mg Protein
